In patent publication US8569339B2, “Soluble guanylate cyclase activators” (Boehringer Ingelheim International GmbH, priority 2011, dated 2013):
Values after ≈ are worked out from the molar mass of the structure shown.

How the values were obtained:
[1] = target: T1, Recombinant human soluble guanylate cyclase (sGC) (Homo sapiens, UniProt Q02153); assay: Molecular assay: activation of heme-free sGC, cGMP detection (CisBio kit); assay type: biochemical; conditions: 300 pM heme-free sGC, 37° C., 60 minutes, cGMP formation
T1 construct: histidine tag (C); made in house; host or cells: Sf9 insect cells (baculovirus coinfection)
T1 sequence (Q02108 whole entry partner): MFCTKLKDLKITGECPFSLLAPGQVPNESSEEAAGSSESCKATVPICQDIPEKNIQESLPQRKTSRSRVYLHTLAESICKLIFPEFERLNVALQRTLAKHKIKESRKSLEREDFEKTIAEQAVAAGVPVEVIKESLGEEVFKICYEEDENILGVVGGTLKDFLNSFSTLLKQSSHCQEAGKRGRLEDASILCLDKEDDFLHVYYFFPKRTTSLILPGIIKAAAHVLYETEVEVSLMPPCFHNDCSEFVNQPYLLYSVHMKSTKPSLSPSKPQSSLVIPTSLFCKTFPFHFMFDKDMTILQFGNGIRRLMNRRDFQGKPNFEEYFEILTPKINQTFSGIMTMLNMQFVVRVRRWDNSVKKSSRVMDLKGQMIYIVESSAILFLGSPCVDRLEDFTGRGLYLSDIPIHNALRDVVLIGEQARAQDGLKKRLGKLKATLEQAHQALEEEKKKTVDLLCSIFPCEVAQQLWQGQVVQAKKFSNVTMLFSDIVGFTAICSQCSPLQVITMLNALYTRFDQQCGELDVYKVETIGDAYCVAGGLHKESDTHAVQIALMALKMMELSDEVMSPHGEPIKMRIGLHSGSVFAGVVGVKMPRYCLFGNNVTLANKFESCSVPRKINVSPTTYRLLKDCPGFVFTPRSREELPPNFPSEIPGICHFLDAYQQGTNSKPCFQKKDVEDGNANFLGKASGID
T1 sequence (Q02153 whole entry): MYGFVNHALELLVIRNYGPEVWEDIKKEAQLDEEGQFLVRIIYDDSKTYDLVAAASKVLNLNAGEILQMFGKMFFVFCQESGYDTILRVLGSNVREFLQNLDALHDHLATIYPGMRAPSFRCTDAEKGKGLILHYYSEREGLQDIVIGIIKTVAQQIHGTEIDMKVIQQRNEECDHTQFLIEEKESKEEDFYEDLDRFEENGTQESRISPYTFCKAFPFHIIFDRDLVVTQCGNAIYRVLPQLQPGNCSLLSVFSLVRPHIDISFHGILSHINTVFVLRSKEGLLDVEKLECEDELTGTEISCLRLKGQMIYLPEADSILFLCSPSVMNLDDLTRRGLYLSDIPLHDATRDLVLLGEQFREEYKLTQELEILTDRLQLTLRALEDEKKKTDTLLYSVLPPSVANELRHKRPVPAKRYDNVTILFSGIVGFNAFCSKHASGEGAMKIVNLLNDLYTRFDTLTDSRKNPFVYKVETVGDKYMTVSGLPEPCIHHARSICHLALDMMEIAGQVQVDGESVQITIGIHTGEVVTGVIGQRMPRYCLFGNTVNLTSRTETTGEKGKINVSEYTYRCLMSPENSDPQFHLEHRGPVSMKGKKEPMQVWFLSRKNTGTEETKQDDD
Description: The compounds of the invention may be evaluated in the following molecular assay:
Recombinant human soluble guanylate cyclase (sGC) is purified from Sf9 insect cells coinfected with baculoviruses expressing the alpha 1 or beta 1 subunit of sGC, both with a C-terminal histidine tag. Heme-free sGC is prepared by treating cell lysate with a final concentration of 0.5% Tween 20 prior to purification on a nickel affinity column.
sGC catalyzes the conversion of guanosine-5′-triphosphate (GTP) to cyclic guanosine monophosphate (cGMP). The activity of sGC is measured in vitro using the commercially available CisBio cGMP detection kit (catalog #62GM2PEB) in a 384 well format. In brief, 300 pM heme-free sGC is incubated in reaction buffer (50 mM MOPS pH 6.8, 0.2 N KOH, 50 mM NaCl, 2 mM MgCl2, 0.1% BSA, 1.25 mM IBMX, 0.25 mM TCEP, 50 nM GTP) in the presence or absence of dilutions of test compounds diluted in DMSO (final concentration of 1%) in a volume of 10 microL at 37° C. for 60 minutes. Undiluted reaction products or an 80-fold dilution of reaction products (10 microL of either) prepared in reaction buffer containing 0.2 mM TCEP and 10 mM EDTA is mixed with 5 microL of d2-cGMP plus 5 microL of Eu^3+cryptate-labeled anti-cGMP, each diluted in buffer containing 0.1 M KPO4 pH 7.5, 0.4 M KF, 20 mM EDTA, 0.2% BSA. After a one hour incubation at room temperature in the dark, the mixtures are quantified on an EnVision plate reader (PerkinElmer) according to manufacturer instructions (laser excitation 337 nm, emission 620 and 665 nm). The ratio at each compound concentration is converted to nM cGMP using the linear portion of a calibration curve. Log compound concentration is plotted against combined undiluted and diluted nM cGMP values to determine the EC50 for each curve.
Representative compounds of the present invention were tested for activity in the above assay. Preferred compounds have an IC50<5,000 nM and more preferred compounds have an IC50<100 nM in this assay.

[2] = Assessment of solubility (HT solubility, pION, UV); assay type: physicochemical; conditions: incubated 16-19 hours, 1.0% DMSO, 100 uM; for solubility kinetic: pH 4.5 buffer (pION system solution), pH 4.5, aqueous buffer, kinetic from dmso stock, pH 4.5 buffer, read-out: Sol pH 4.5; for Sol pH 7.4: pH 7.4 buffer
Description: Solubility is measured by the following method.
DMSO stock samples at 10 mM conc are prepared. […] The samples are pierced and 100 ul of thawed samples are transferred into the PCR plate for analysis. Each sample is run in duplicate at each pH (pH 4.5 and 7.4). Up to 95 samples can be run in replicate at 2 pH's+1 DMSO (blank).
2. Preparation of pH 4.5 and 7.4 buffers:
pH 4.5 buffer: To 12.5 of system solution (pION) qs to 500 mL of distilled water (pH 2.85-2.90); adjust the pH to pH 4.5 with 0.5 N NaOH.
pH 7.4 buffer: To 12.5 of system solution (pION) qs to 500 mL of distilled water (pH 2.85-2.90); adjust the pH to pH 7.4 with 0.5N NaOH.
Preparation of UV blank plate:
75 ul of buffer (pH 7.4 or pH 4.5) is added to UV plate followed by addition of […] of N-propanol. The solution is mixed and the blank spectrum is read using spectrophotometer.
Preparation of Reference UV plate:
10 ul of each stock sample (including DMSO control) is added to 190 ul of N-propanol to prepare the reference stock plate. Reference stock samples are mixed and 5 ul of each stock sample is added to UV blank plate after it is read spectrophotometrically. The reference stock sample is mixed with blank solution in UV plate and the reference spectrum is read using UV spectrophotometer.
Preparation of sample for incubation:
Solubility at pH 7.4: 6 ul of each stock sample (including DMSO control) is added to the storage plate containing 600 ul of pH 7.4 buffer, mixed and incubated for 16-19 hours. The plate is sealed well during the incubation process. The DMSO content in the sample is 1.0%. The concn in deep well plates is 100 uM
6 ul of each stock sample (including DMSO control) is added to the deep well plate containing 600 ul of pH 4.5 buffer, mixed and incubated for 16-19 hours. The plate is sealed well during the incubation process. The DMSO content in the sample is 1.0%. The concn in deep well plates is 100 uM
Preparation of sample UV plate:
At the end of the incubation period, 100 uL of sample from the storage plate is vacuum filtered using a filter plate. This step wets the filters and the filtrate is discarded. Another 200 ul of the sample from the deep well plate is vacuum filtered using the same filter block but a clean filter plate. 75 ul of the filtrate from the filter plate is transferred to a UV sample plate. 75 ul of N-propanol is added to this UV plate. The solution is mixed and the spectrum is read using the UV spectrophotometer.
The spectra collected for blank, reference and sample from 250-498 nm is analyzed using pION software. If the sample precipitates out, the solubility is reported as XX μg/ml. If there is no precipitation and the sample is soluble, solubility is reported as […] (YY being the initial concentration of the compound in the sample).

Row | SMILES | EC50 [1] | solubility kinetic [2] | Sol pH 7.4 [2]
1 | Cc1ccc(OCc2ccc3c(c2)CN(C)CC3)c(-c2cccc(-n3ncc(C(=O)O)c3C(F)(F)F)n2)c1 [Compound 52] | 550 nM | > 63 µg/mL | 42.1 μg/mL
2 | Cc1cccc(-c2cccc(-c3c(C)c(C(=O)O)nn3C3CCOCC3)n2)c1OCc1ccc2c(c1)CCN(C1CCOCC1)C2 [Compound 89] | 700 nM | 51.5 µg/mL (≈ 82.7 µM) | >62 μg/mL
3 | Cc1ccc(OCc2ccc3c(c2)CCN(C2CCCC2)C3)c(-c2cccc(-n3ncc(C(=O)O)c3C(F)(F)F)n2)c1 [Compound 17] | 13 nM | 44.3 µg/mL (≈ 76.8 µM) | >68 μg/mL
4 | Cc1ccc(OCc2ccc3c(c2C)CCN(C)C3)c(-c2cccc(-c3c(C)c(C(=O)O)nn3C)n2)c1 [Compound 78] | 970 nM | 24.1 µg/mL (≈ 48.5 µM) | 24.2 μg/mL
5 | Cc1cccc(-c2cccc(-c3c(C)c(C(=O)O)nn3CCC(=O)O)n2)c1OCc1ccc2c(c1)CCN(C1CCOCC1)C2 [Compound 85] | 94 nM | > 60 µg/mL | >60 μg/mL
6 | Cc1ncc(CN2CCc3cc(COc4c(C)cccc4-c4cccc(-c5ncc(C(=O)O)n5C)n4)ccc3C2)s1 [Compound 70] | 37 nM | > 66 µg/mL | >66 μg/mL
7 | Cc1ccc(OCc2ccc3c(c2)CCN(C2CCOCC2)C3)c(-c2cccc(-c3c(C)c(C(=O)O)nn3C)n2)c1 [Compound 79] | 1200 nM | > 80 µg/mL | >80 μg/mL
8 | Cc1ccc(OCc2ccc3snnc3c2)c(-c2cccc(-n3ncc(C(=O)O)c3C(F)(F)F)n2)c1 [Compound 7, 1-{6-[2-(benzo[1,2,3]thiadiazol-5-ylmethyoxy)-5-methylphenyl]pyridin-2-yl}-5-trifluoromethyl-1H-pyrazole-4-carboxylic acid] | 490 nM | 2.1 µg/mL (≈ 4.11 µM) | >51 μg/mL
9 | Cc1ccc(OCc2ccc3c(c2)CCN(C2CCOCC2)C3)c(-c2cccc(-n3cnc(C(=O)O)c3C)n2)c1 [Compound 58] | 2600 nM | > 78 µg/mL | >78 μg/mL
10 | Cc1ccc(OCc2ccc3c(c2)CCN(C)C3)c(-c2cccc(-n3ncc(C(=O)O)c3C)n2)c1 [Compound 43, 5-methyl-1-{6-[5-methyl-2-(2-methyl-1,2,3,4-tetrahydro-isoquinolin-6-ylmethoxy)phenyl]pyridin-2-yl}-1H-pyrazole-4-carboxylic acid] | 1700 nM | 15.4 µg/mL (≈ 32.9 µM) | 19.6 μg/mL
11 | Cc1ccc(OCc2ccc3c(c2)CCN3S(C)(=O)=O)c(-c2cccc(-n3ncc(C(=O)O)c3C(F)(F)F)n2)c1 [Compound 9, 1-{6-[2-(1-methanesulfonyl-2,3-dihydro-1H-indol-5-ylmethyoxy)-5-methylphenyl]pyridin-2-yl}-5-trifluoromethyl-1H-pyrazole-4-carboxylic acid] | 67 nM | 0.4 µg/mL (≈ 0.699 µM) | >54 μg/mL
12 | Cc1ccc(OCc2ccc3c(c2)CCN(S(C)(=O)=O)C3)c(-c2cccc(-n3ncc(C(=O)O)c3C(F)(F)F)n2)c1 [Compound 5] | 33 nM | 0.1 µg/mL (≈ 0.17 µM) | >58 μg/mL
13 | Cc1ccc(OCc2ccc3c(c2)CCN(C)CC3)c(-c2cccc(-n3ncc(C(=O)O)c3C(F)(F)F)n2)c1 [Compound 40] | 32 nM | 16.3 µg/mL (≈ 30.4 µM) | 18.5 μg/mL
14 | Cc1ccc(OCc2ccc3c(c2)CCN(C2CCOCC2)C3)c(-c2cccc(-n3ncc(C(=O)O)c3C)n2)c1 [Compound 65] | 134 nM | > 53 µg/mL | >53 μg/mL
15 | Cc1ccc(OCc2cc3c(cc2C)CN(C)CC3)c(-c2cccc(-n3ncc(C(=O)O)c3C(F)(F)F)n2)c1 [Compound 62, 1-[6-[2-[(2,7-dimethyl-3,4-dihydro-1H-isoquinolin-6-yl)methoxy]-5-methylphenyl]-2-pyridyl]-5-(trifluoromethyl)pyrazole-4-carboxylic acid] | 440 nM | 2.8 µg/mL (≈ 5.22 µM) | 1.2 μg/mL
16 | Cc1cccc(-c2cccc(-n3cnc(C(=O)O)c3C)n2)c1OCc1ccc2c(c1)CCN(C1CCOCC1)C2 [Compound 57, 5-methyl-1-[6-[3-methyl-2-[(2-tetrahydropyran-4-yl-3,4-dihydro-1H-isoquinolin-6-yl)methoxy]phenyl]-2-pyridyl]imidazole-4-carboxylic acid] | 1100 nM | > 78 µg/mL | >78 μg/mL
17 | Cc1ccc(OCc2ccc3c(c2)CCN(CCC2CCOCC2)C3)c(-c2cccc(-n3ncc(C(=O)O)c3C(F)(F)F)n2)c1 [Compound 25] | 19 nM | > 62 µg/mL | >62 μg/mL
18 | Cc1ccc(OCc2ccc3c(c2)CCN(C)C3)c(-c2cccc(-c3csc(C(=O)O)c3C)n2)c1 [Compound 46, 3-methyl-4-{6-[5-methyl-2-(2-methyl1,2,3,4-tetrahydroisoquinolin-6-ylmethoxy)phenyl]pyridin-2-yl}thiophene-2-carboxylic acid] | 2000 nM | 0.1 µg/mL (≈ 0.206 µM) | 5.7 μg/mL
19 | Cc1ccc(OCc2ccc3c(c2)CCN(C2CCOCC2)C3)c(-c2cccc(-n3ncc(C(=O)O)c3C(F)(F)F)n2)c1 [Compound 34] | 8 nM | 41.5 µg/mL (≈ 70 µM) | 41.8 μg/mL
20 | CCn1c(C(=O)O)cnc1-c1cccc(-c2cccc(C)c2OCc2ccc3c(c2)CCN(C2CCOCC2)C3)n1 [Compound 63, 3-ethyl-2-[6-[3-methyl-2-[(2-tetrahydropyran-4-yl-3,4-dihydro-1H-isoquinolin-6-yl)methoxy]phenyl]-2-pyridyl]imidazole-4-carboxylic acid] | 14 nM | > 78 µg/mL | 54.2 μg/mL
21 | Cc1ccc(OCc2ccc3c(c2)CCN(C)C3)c(-c2cccc(-c3ncc(C(=O)O)n3C)n2)c1 [Compound 41] | 4540 nM | > 58 µg/mL | 11.8 μg/mL
22 | Cc1ccc(OCc2ccc3c(c2C)CCN(C2CCOC2)C3)c(-c2cccc(-c3csc(C(=O)O)c3C)n2)c1 (stereo not drawn) [Compound 53] | 47 nM | 40.1 µg/mL (≈ 72.3 µM) | 51.4 μg/mL
23 | Cc1ccc(OCc2ccc3c(c2)CCN(C(C)c2cnccn2)C3)c(-c2cccc(-n3ncc(C(=O)O)c3C(F)(F)F)n2)c1 (stereo not drawn) [Compound 28] | 9 nM | > 61 µg/mL | >61 μg/mL
